The values below come from PMC6148246, “HS-1371, a novel kinase inhibitor of RIP3-mediated necroptosis” (Experimental & Molecular Medicine, 2018).

The target of one test is RIP3 (Homo sapiens, UniProt Q9Y572). The experiment in a line: Basal S227 auto-phosphorylation of RIP3 in HT-29 cells (immunoblot). Format: cell-based. The arrangement: RIP3-expressing HT-29 cells; endogenous in cells; host or cells: HT-29. The following applies: 10 μM, 9 h. As for the experimental part:
Cells were rinsed in cold phosphate-buffered saline (PBS) and lysed in M2 buffer containing 20 mM Tris at pH 7, 0.5% NP-40, 250 mM NaCl, 3 mM EDTA, 3 mM EGTA, 2 mM DTT, 0.5 mM PMSF, 20 mM β-glycerol phosphate, 1 mM sodium vanadate, and 1 μg/mL leupeptin. The cell extracts were subjected to western blot analysis. For immunoprecipitation, lysates were mixed and precipitated with antibody and protein A-agarose beads overnight or for 4 h at 4 °C. Bound proteins were removed by boiling in SDS and resolved by SDS-PAGE, and immunoblotting was visualized by enhanced chemiluminescence (ECL, Amersham).
RIP3 kinase activity is essential for TNF-induced necroptosis, and human S227 auto-phosphorylation sites of RIP3 are required for the interaction of RIP3 with its substrate MLKL[13],[14], which is indispensable for downstream necroptotic cell death signaling. To test the possible effects of the RIP3 inhibitors on necroptosis, HT-29 cells were treated with the kinase inhibitors, and RIP3 kinase activity was determined by examining its phosphorylation status.
Fig. 2 Novel inhibitors can block RIP3 S227 phosphorylation. a Western blotting showing various kinase inhibitor effects on RIP3 S227 auto-phosphorylation. HT-29 cells were treated with four tested kinase inhibitors (1308, 1336, 1338, and 1371, 10 μM) for 9 h. As a control, KK5101 (Trk alpha inhibitor) and HS829 (IKK beta inhibitor) were also treated at a concentration of 10 μM for 9 h. Prototypical necroptosis stimuli (TNF + zVAD + either cycloheximide or SMAC mimetic; hereafter referred to as TCZ or TSZ) were applied for 6 h. […] HT-29 cells were treated with 4 tested kinase inhibitors for 24 h, and cell viability was analyzed by MTT assay or phase-contrast microscopy. […] HT-29 cells were pretreated with necrostatin-1 (Nec-1, 40 μM), dabrafenib (DAB, 10 μM) or necrosulfonamide (NSA, 1 μM) for 2 h and then treated with TSZ for 6 h. […] HT-29 cells were pretreated with four tested kinase inhibitors for 2 h and then treated with TSZ for 6 h. Cell lysates were analyzed by immunoblotting. f HT-29 cells were pretreated with Nec-1 (40 μM), DAB (5 μM) or HS-1371 (5 μM) for 2 h and then treated with TSZ for 4 h. Cell lysates were immunoprecipitated with anti-RIP3 antibody. Immunoprecipitates and total lysates were analyzed by Western blotting
A general note: Immunoblotting shows a protein as a band on a membrane.

The test system of the next test is NF-κB pathway. The experiment in a line: TNF- or LPS-induced NF-κB signaling (immunoblot). Type of test: cell-based. As to the method: Supplementary Figure 1. Identification of HS-1371 as a novel RIP3 kinase inhibitor.
Detailed interaction patterns in the region surrounded by DFG motif and αC helix of RIP3.
Hydrogen bonds are indicated with dotted lines.
Supplementary Figure 2. The effect of HS-1371 was compared with GSK’872.
(a) Overexpression of RIP3 could induce S227 phosphorylation without stimuli. HEK293T cells were transiently transfected with Flag-hRIP3, and cells were treated with or without DAB for incubation periods. After cells were harvested, cell lysates were analyzed by […]
kinase inhibitor. HT-29 cells were treated with HS -1371 or GSK’872 indicated concentrations for 9 h, and cell lysates were analyzed by immunoblotting.
(c) Cytotoxicity of HS-1371 was compared with GSK’872. HT-29 cells were treated with 2 kinase inhibitors for 24 h and cell viability was analyzed by MTT assay.
(d) Inhibition of MLKL phosphorylation by HS-1371 was compared with other two RIP3 kinases inhibitors, DAB (5 μM) and GSK’872 (5 μM). […] Cell lysates were analyzed by […]
HeLa, L929, and MEF cells were pretreated with HS-1371 (5 μM) for 2 h, and treated with TNF (30 ng/mL) for indicated time points. Cell lysates were analyzed by immunoblotting. […]
(a) RAW264.7 cells were treated with LPS (1 μg/mL) for indicated time points and cell lysates were analyzed by immunoblotting. […]

Another test concerns L929. As to the kind of experiment: TNF plus zVAD-induced necroptosis in L929 cells. Type of test: cell-based, mouse. As to the method: Cells were pretreated with DAB or HS-1371 for 2 h and then treated with TSZ (6 h for immunoblotting, 24 h for cell death assay). Cell lysates were analyzed by immunoblotting (left bottom panel), and cell viability was analyzed by MTT assay (right panel). The results are presented as means ± SEM. *P < 0.05, **P < 0.01, ***P < 0.001. c, d HS-1371 had the same effect on mouse cells. L929 (mouse sarcoma, c) and MEF (mouse embryonic fibroblast, d) cells were pretreated with inhibitors and then necroptosis was induced by TNF. Cell lysates were analyzed by immunoblotting (upper panel), and cell viability was analyzed by MTT assay (bottom panel). The results are presented as means ± SEM. *P < 0.05, **P < 0.01, ***P < 0.001

RIP3, sequence (Q9Y572 whole entry): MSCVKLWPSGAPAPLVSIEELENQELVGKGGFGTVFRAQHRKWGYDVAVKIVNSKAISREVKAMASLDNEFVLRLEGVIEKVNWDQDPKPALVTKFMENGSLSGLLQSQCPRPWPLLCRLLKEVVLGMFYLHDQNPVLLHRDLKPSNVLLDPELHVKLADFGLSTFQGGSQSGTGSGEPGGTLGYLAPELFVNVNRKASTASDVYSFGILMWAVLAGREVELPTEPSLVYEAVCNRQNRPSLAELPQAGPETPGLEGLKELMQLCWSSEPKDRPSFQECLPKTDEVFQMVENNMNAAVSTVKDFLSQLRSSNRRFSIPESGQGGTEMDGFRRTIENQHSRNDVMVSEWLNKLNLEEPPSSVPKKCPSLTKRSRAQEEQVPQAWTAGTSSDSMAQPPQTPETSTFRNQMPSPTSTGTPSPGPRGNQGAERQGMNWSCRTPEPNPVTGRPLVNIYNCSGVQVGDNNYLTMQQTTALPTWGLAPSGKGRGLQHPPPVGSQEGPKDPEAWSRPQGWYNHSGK

On to `Cc1ccc(Oc2ccnc3cc(-c4cnn(C5CCNCC5)c4)ccc23)cc1` [HS-1371, 7-(1-(Piperidin-4-yl)-1H-pyrazol-4-yl)-4-(p-tolyloxy)quinoline], for which the “effect on S227 auto-phosphorylation of RIP3 at the basal level” value at RIP3 is given as “inhibitory effect”. The “TNF-induced NF-κB signaling” value in the test with NF-κB pathway (HT-29, HeLa(RIP3), L929, MEF, 5 μM pretreated 2 h, TNF 30 ng/mL) is listed as “did not affect”. For the same compound, the “LPS-induced induction of the NF-κB pathway” value with NF-κB pathway (data not shown) is “not altered”. The “TNF plus zVAD-induced necroptosis” value in the test on L929 was “prevented”.
